In paper PMC8778091, “In Silico-Based Discovery of Natural Anthraquinones with Potential against Multidrug-Resistant E. coli” (Pharmaceuticals, 2022):
Values after ≈ are worked out from the molar mass of the structure shown. Where two headings read alike, the source gives them in different places.

Assays:
[1] = target: T1, E. coli DAla:D-Ala ligase (Ddl-B) (Escherichia coli, UniProt P07862); assay: Ddl-B enzymatic activity assay (inorganic phosphate, absorbance 650 nm); format: biochemical
T1 construct: purchased ProFoldin DDA100KE
Procedure: (§1) Ddl-B and Gyr-B activity assays were performed according to the manufacturer protocols (ProFoldin, Catalogue No. DDA100KE, and Inspiralis, Catalogue No. ATPG001, UK).
Ddl-B enzymatic activity assay is based on measuring the inorganic phosphate generated from the D-Alanine: D-Alanine ligation reaction. The inorganic phosphate is detected by absorbance at 650 nm. The assay reactions and detection were performed by using a 96-well plate. Different concentrations of the test compounds and the reference inhibitor D-cycloserine were prepared in DMSO (from 10 µM to 1000 µM). […] Thereafter, 33 μL of 10× enzyme substrate was prepared by mixing 3.3 μL of 100× enzyme substrate with 29.7 μL of water. Finally, 27 μL of the premix with 3 μL of the 10× enzyme substrate in each well were mixed. After 60 min of incubation at 37 °C, 45 μL of MPA3000 dye was added into the 30 μL of the reaction mixture. After 5 min of incubation, absorbance was measured at 650 nm.

[2] = target: T2, E. coli gyrase B43 domain (Gyr-B) (Escherichia coli, UniProt P0AES6); assay: biochemical; format: biochemical
T2 construct: 20 μL of the enzyme (E. coli gyrase B43 domain; 20 μM concentration); purchased Inspiralis ATPG001
Procedure: as §1
Gyr-B assay measured the capability of the tested compounds to hinder the ATPase activity of Gyr-B subunits. This assay links the hydrolysis of ATP by gyrase to the conversion of NADH to NAD^+, which can be measured by a change in absorbance at 340 nm. The assay reactions and detection were performed using a 96-well plate. […] First, the assay mix was prepared by mixing 20 μL of the assay buffer (50 mM Tris.HCl (pH 7.5), 1 mM EDTA, 5 mM magnesium chloride, 5 mM DTT, 10% (w/v) glycerol), 1 μL phosphoenolpyruvate (80 mM in water), 1.5 μL pyruvate kinase/lactate dehydrogenase stock, 2 μL NADH (20 mM in water), and 58.8 μL water. Thereafter, 63.3 μL of assay mix and 10 μL of the test compound solution and 20 μL of the enzyme (E. coli gyrase B43 domain; 20 μM concentration) were added into the wells and mixed by pipetting. After incubation for 10 min at 25 °C, 6.7 uL of ATP (30 mM) was added to each well. After 60 min of incubation at 25 °C, the absorbance was measured at 340 nm.

[3] = test system: E. coli (MDR) a clinical isolate; assay: MIC, agar dilution method, E. coli MDR a; format: cell-based; conditions: Escherichia coli; range 1-64 µg/mL, 37 °C, 18-20 h; read-out: MIC E. coli (MDR) a
Procedure: (§2) The selected top-scoring hits were evaluated for their antibacterial effect against two clinical multidrug-resistant strains of enterotoxigenic E. coli. Both isolates were isolated as clinical samples from Beni Suef general hospital, Beni Suef, Egypt. […] MRSA (ATCC 25529) and VRSA (clinical isolate from Beni Suef general hospital, Beni Suef, Egypt) were also used to further evaluate the tested compounds against resistant Gram-positive bacteria.
(§3) Minimum inhibitory concentrations for the test compounds were analyzed following the standard agar dilution method using Meuller-Hinton (MH) agar medium against different Gram-negative and positive bacteria (Table 1). Firstly, the tested compounds were prepared as a stock suspension with a 10 mg/mL final concentration in DMSO. Subsequently, the prepared stocks were diluted in 10 mL molten soft agar (0.5% agar) to obtain a concentration range from 1–64 µg/mL, then mixed and poured over a surface of MH agar (2% agar) plates and left for solidification. Finally, exponentially grown (O.D 600 nm of 0.6) test strains (Table 1) were diluted to a final density of 10^6 CFU/mL in MH broth and spotted (1 µL/spot) over the soft agar. Then, the plates were left for drying and incubated at 37 °C for 18–20 h. Controls were conducted using DMSO seeded soft agar. At the end of the experiment, the MIC for each compound was identified as the minimum concentration that inhibited the growth of the tested strain. The experiments were carried out in triplicates.

[4] = test system: E. coli (MDR) b clinical isolate; assay: MIC, agar dilution method, E. coli MDR b; format: cell-based; conditions: Escherichia coli; range 1-64 µg/mL, 37 °C, 18-20 h; read-out: MIC E. coli (MDR) b
Procedure: as §2, §3

MRSA (ATCC 25529) = assay: MIC, agar dilution method, MRSA; format: cell-based, S. aureus; conditions: Staphylococcus aureus; range 1-64 µg/mL, 37 °C, 18-20 h; read-out: MIC MRSA
Procedure: as §2, §3

VRSA (clinical isolate) = assay: MIC, agar dilution method, VRSA; format: cell-based, S. aureus; conditions: Staphylococcus aureus, VRSA; range 1-64 µg/mL, 37 °C, 18-20 h; read-out: MIC VRSA
Procedure: as §2, §3

[5] = Cellular toxicity against normal fibroblasts WI-38 (MTT); format: cell-based; conditions: human
Procedure: All selected top-scoring compounds were tested for their cellular toxicity against human fibroblasts cell line (WI-38). Cell line (WI-38; ATCC: CCL-75) was maintained in earth RPMI 1640 medium comprising 10% heat-inactivated fetal bovine serum (FBS) and grown at 37 °C and 5% CO2. The cell line was seeded on 96-well cell culture plates (2 × 10^4 cells/well). Cells were stimulated with tested compounds at different concentrations (from 1 to 50 µM) overnight in triplicates. Doxorubicin was used as a positive control. Cell viability was assessed by MTT assay. To normalize cell viability values, each plate included a triplicate of untreated cells considered as 100% viability, and a triplicate of cells treated with a cytotoxic mixture (200 ng/mL TNF, 200 ng/mL CD95L, 200 ng/mL TRAIL, 5 μg/mL CHX, 1% (w/v) sodium azide […]) considered as 0% viability. All other viability values were normalized according to the averages of these triplicates and analyzed by the Graph Pad Prism 5 software (La Jolla, CA, USA).

[6] = test system: tested bacterial strains (E. coli MDR, MRSA, VRSA); assay: Antibacterial evaluation, tested bacterial strains taken together; format: cell-based; conditions: Escherichia coli; E. coli MDR, MRSA, VRSA
Procedure: as §2, §3

| SMILES | Ddl-B inhibition in words [1] | IC50 ([1]; 10-1000 µM tested, read-out: IC50 Ddl-B) | Ki ([1]; read-out: Ki Ddl-B) | IC50 [2] | Ki [2] | MIC [3] | MIC [4] | MIC (MRSA (ATCC 25529)) | MIC (VRSA (clinical isolate)) | CC50 [5] | MIC [6] | IC50 [1] | Ki [1] |
| --- | --- | --- | --- | --- | --- | --- | --- | --- | --- | --- | --- | --- | --- |
| Cc1cc(O)c2c(c1)C(=O)c1cc(O)cc(O)c1C2=O [Emodin] | more potent | 216 ± 5.6 µM | 102 ± 4.8 µM | 810 ± 300 nM | 220 ± 100 nM | 2 µg/mL (≈ 7.4 µM) | 2 µg/mL (≈ 7.4 µM) | 2 µg/mL (≈ 7.4 µM) | 2 µg/mL (≈ 7.4 µM) | 49.2 ± 1.39 µM | 2 to 4 µg/mL (≈ 7.4 to 14.8 µM) | – | – |
| CC(C)C1=CC2=CC[C@@H]3[C@](C)(CCC[C@@]3(C)C(=O)O)[C@H]2CC1 [Abietic acid] | inactive | – | – | 1400 ± 400 nM | 770 ± 100 nM | 64 µg/mL (≈ 212 µM) | 16 µg/mL (≈ 52.9 µM) | > 64 µg/mL | 16 µg/mL (≈ 52.9 µM) | > 50 µM | 16 to 64 µg/mL (≈ 52.9 to 212 µM) | > 1000 µM | > 1000 µM |
| Cc1cc(O)c2c(c1)C(=O)c1cccc(O)c1C2=O [Chrysophanol] | more potent | – | – | 1500 ± 500 nM | 830 ± 200 nM | 4 µg/mL (≈ 15.7 µM) | 4 µg/mL (≈ 15.7 µM) | > 64 µg/mL | 4 µg/mL (≈ 15.7 µM) | 48.1 ± 1.39 µM | 2 to 4 µg/mL (≈ 7.87 to 15.7 µM) | 236 ± 8.9 µM | 105 ± 4.9 µM |
